# In patent US9029377B2, “Platelet-activating factor receptor antagonists” (Merck Sharp & Dohme Corp., priority 2009, dated 2015):
# Biological target: PAFR (Homo sapiens, UniProt P25105)
# Experiment: PAF Binding Assay (PAFR binding)
# PAFR, sequence (P25105 whole entry): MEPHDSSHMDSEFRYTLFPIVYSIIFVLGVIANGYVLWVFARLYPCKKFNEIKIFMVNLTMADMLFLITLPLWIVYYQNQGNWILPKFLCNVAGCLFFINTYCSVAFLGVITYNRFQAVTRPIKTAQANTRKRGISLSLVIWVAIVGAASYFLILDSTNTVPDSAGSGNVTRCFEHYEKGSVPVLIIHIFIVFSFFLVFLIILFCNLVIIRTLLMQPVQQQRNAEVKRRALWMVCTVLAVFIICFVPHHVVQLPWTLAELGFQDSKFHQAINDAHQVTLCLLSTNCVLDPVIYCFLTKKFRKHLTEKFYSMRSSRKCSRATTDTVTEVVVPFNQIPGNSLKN
row,IC50 [nM],Compound
1,7.8,"O=S(=O)(N[C@H]1CCC[C@@H](n2cnnc2)C1)c1cc(-c2noc(C3CC3)n2)cc(C(F)(F)F)c1 [Compound 3Ah, 3-(5-cyclopropyl-1,2,4-oxadiazol-3-yl)-N-[(1S,3R)-3-(4H-1,2,4-triazol-4-yl)cyclohexyl]-5-(trifluoromethyl)benzenesulfonamide]"
2,63,"CCc1ccc(S(=O)(=O)N[C@H]2CCC[C@@H](n3cnnc3)C2)cc1-c1cccnc1OC [Compound 2Mn, 4-ethyl-3-(2-methoxypyridin-3-yl)-N-[(1S,3R)-3-(4H-1,2,4-triazol-4-yl)cyclohexyl]benzenesulfonamide]"
3,0.2,"CCc1cc(-c2ccc(OCC(F)(F)F)nc2)ccc1S(=O)(=O)N[C@@H]1C[C@H](n2cnnc2C)CC(F)(F)C1 [Compound 2Cbe, N-[(1R,5S)-3,3-difluoro-5-(3-methyl-4H-1,2,4-triazol-4-yl)cyclohexyl]-2-ethyl-4-[6-(2,2,2-trifluoroethoxy)pyridin-3-yl]benzenesulfonamide]"
4,6.2,"Cc1nncn1[C@@H]1CCC[C@H](NS(=O)(=O)c2ccc(-c3ccc(OC(F)(F)F)cc3)cc2OC(F)(F)F)C1 [Compound 2Bbd, N-[(1S,3R)-3-(3-methyl-4H-1,2,4-triazol-4-yl)cyclohexyl]-3,4′-bis(trifluoromethoxy)biphenyl-4-sulfonamide]"
5,9800,"CCc1cc(-n2cnnc2C)ccc1S(=O)(=O)N[C@H]1CCC[C@@H](n2cnnc2)C1 [Compound 4b, 2-ethyl-4-(3-methyl-4H-1,2,4-triazol-4-yl)-N-[(1S,3R)-3-(4H-1,2,4-triazol-4-yl)cyclohexyl]benzenesulfonamide]"
6,0.7,"CCc1cc(-c2ccc(OCC(F)(F)F)nc2)ccc1S(=O)(=O)N[C@H]1CCC[C@@H](n2cnnc2)C1 [Compound 2Aak, 2-ethyl-N-[(1S,3R)-3-(4H-1,2,4-triazol-4-yl)cyclohexyl]-4-[6-(2,2,2-trifluoroethoxy)pyridin-3-yl]benzenesulfonamide]"
7,0.2,"CCc1cc(-c2ccc(OCC(F)(F)F)nc2)ccc1S(=O)(=O)N[C@H]1CCC[C@@H](n2cnnc2C)C1 [Compound 2Abe, 2-ethyl-N-[(1S,3R)-3-(3-methyl-4H-1,2,4-triazol-4-yl)cyclohexyl]-4-[6-(2,2,2-trifluoroethoxy)pyridin-3-yl]benzenesulfonamide]"
8,13,"CCc1cc(-c2cc(C(F)(F)F)cc(C(F)(F)F)c2)ccc1S(=O)(=O)N[C@H]1CCC[C@@H](n2cnnc2)C1 [Compound 2Abo, 3-ethyl-N-[(1S,3R)-3-(4H-1,2,4-triazol-4-yl)cyclohexyl]-3′,5′-bis(trifluoromethyl)biphenyl-4-sulfonamide]"
9,164,"O=S(=O)(N[C@H]1CCC[C@@H](n2cnnc2)C1)c1ccc(OC(F)(F)F)cc1 [Compound 2Mu, N-[(1S,3R)-3-(4H-1,2,4-triazol-4-yl)cyclohexyl]-4-(trifluoromethoxy)benzenesulfonamide]"
10,54,"CCc1cc(-c2c(OC)cccc2OC(F)(F)F)ccc1S(=O)(=O)N[C@H]1CCC[C@@H](n2cnnc2)C1 [Compound 2Aab, 3-ethyl-2′-methoxy-N-[(1S,3R)-3-(4H-1,2,4-triazol-4-yl)cyclohexyl]-6′-(trifluoromethoxy)biphenyl-4-sulfonamide]"
11,51,"O=S(=O)(N[C@H]1CCC[C@@H](n2cnnc2)C1)c1ccc(Oc2ccccc2)cc1 [Compound 2Mv, 4-phenoxy-N-[(1S,3R)-3-(4H-1,2,4-triazol-4-yl)cyclohexyl]benzenesulfonamide]"
12,0.4,"Cc1nncn1[C@H]1C[C@@H](NS(=O)(=O)c2cc(-c3cccc4cccnc34)cc(C(F)(F)F)c2)CC(F)(F)C1 [Compound 3Ca, N-[(1R,5S)-3,3-difluoro-5-(3-methyl-4H-1,2,4-triazol-4-yl)cyclohexyl]-3-quinolin-8-yl-5-(trifluoromethyl)benzenesulfonamide]"
13,381,"CCc1cc([N+](=O)[O-])ccc1S(=O)(=O)N[C@H]1CCC[C@@H](n2cnnc2)C1 [Compound 2Ae, 2-ethyl-4-nitro-N-[(1S,3R)-3-(4H-1,2,4-triazol-4-yl)cyclohexyl]benzenesulfonamide]"
14,6.2,"O=S(=O)(N[C@H]1CCC[C@@H](n2cnnc2)C1)c1cc(-c2ccc(F)cc2)cc(C(F)(F)F)c1 [Compound 3Ac, 4′-fluoro-N-[(1S,3R)-3-(4H-1,2,4-triazol-4-yl)cyclohexyl]-5-(trifluoromethyl)biphenyl-3-sulfonamide]"
15,22,"CCc1cc(-c2ccc(C(F)(F)F)cc2C)ccc1S(=O)(=O)N[C@H]1CCC[C@@H](n2cnnc2)C1 [Compound 2Abn, 3-ethyl-2′-methyl-N-[(1S,3R)-3-(4H-1,2,4-triazol-4-yl)cyclohexyl]-4′-(trifluoromethyl)biphenyl-4-sulfonamide]"
16,68,"CCc1cc(-n2cccn2)ccc1S(=O)(=O)N[C@H]1CCC[C@@H](n2cnnc2)C1 [Compound 6a, 2-ethyl-4-(1H-pyrazol-1-yl)-N-[(1S,3R)-3-(4H-1,2,4-triazol-4-yl)cyclohexyl]benzenesulfonamide]"
17,337,"O=S(=O)(N[C@H]1CCC[C@@H](n2cnnc2)C1)c1ccc(-c2noc(C3(O)CC3)n2)cc1C1CC1 [Compound 2Ke, 2-cyclopropyl-4-[5-(1-hydroxycyclopropyl)-1,2,4-oxadiazol-3-yl]-N-[(1S,3R)-3-(4H-1,2,4-triazol-4-yl)cyclohexyl]benzenesulfonamide]"
18,2.5,"CCc1cc(-c2ccc(OC(F)F)cc2)ccc1S(=O)(=O)N[C@H]1CCC[C@@H](n2cnnc2)C1 [Compound 2Ay, 4′-(difluoromethoxy)-3-ethyl-N-[(1S,3R)-3-(4H-1,2,4-triazol-4-yl)cyclohexyl]biphenyl-4-sulfonamide]"
19,39,"CCOc1ccc(S(=O)(=O)N[C@H]2CCC[C@@H](n3cnnc3)C2)cc1 [Compound 2Maa, 4-ethoxy-N-[(1S,3R)-3-(4H-1,2,4-triazol-4-yl)cyclohexyl]benzenesulfonamide]"
20,39,"CCc1cc(-c2ccc(OC)c(F)c2)ccc1S(=O)(=O)N[C@H]1CCC[C@@H](n2cnnc2)C1 [Compound 2At, 3-ethyl-3′-fluoro-4′-methoxy-N-[(1S,3R)-3-(4H-1,2,4-triazol-4-yl)cyclohexyl]biphenyl-4-sulfonamide]"
21,3.9,"CCc1cc(-c2cccn3ccnc23)ccc1S(=O)(=O)N[C@H]1CCC[C@@H](n2cnnc2)C1 [Compound 2d, 2-ethyl-4-imidazo[1,2-a]pyridin-8-yl-N-[(1S,3R)-3-(4H-1,2,4-triazol-4-yl)cyclohexyl]benzenesulfonamide]"
22,2,"CCc1cc(-c2noc(C3CC3)n2)ccc1S(=O)(=O)N[C@H]1CCC[C@@H](n2cnnc2C)C1 [Compound 2Abb, 4-(5-cyclopropyl-1,2,4-oxadiazol-3-yl)-2-ethyl-N-[(1S,3R)-3-(3-methyl-4H-1,2,4-triazol-4-yl)cyclohexyl]benzenesulfonamide]"
23,1.4,"O=S(=O)(N[C@H]1CCC[C@@H](n2cnnc2)C1)c1cc(-c2cccn3ccnc23)cc(C(F)(F)F)c1 [Compound 3Aau, 3-imidazo[1,2-a]pyridin-8-yl-N-[(1S,3R)-3-(4H-1,2,4-triazol-4-yl)cyclohexyl]-5-(trifluoromethyl)benzenesulfonamide]"

row,Compound,IC50 [nM]
1,"O=S(=O)(N[C@H]1CCC[C@@H](n2cnnc2)C1)c1ccc(OCCCC(F)(F)F)cc1 [Compound 2Mac, N-[(1S,3R)-3-(4H-1,2,4-triazol-4-yl)cyclohexyl]-4-(4,4,4-trifluorobutoxy)benzenesulfonamide]",8.3
2,"Cc1nncn1[C@@H]1CCC[C@H](NS(=O)(=O)c2ccc(OCCCCF)c(F)c2)C1 [Compound 2Fi, 3-fluoro-4-(4-fluorobutoxy)-N-[(1S,3R)-3-(3-methyl-4H-1,2,4-triazol-4-yl)cyclohexyl]benzenesulfonamide]",9.7
3,"CCCCOc1ccc(S(=O)(=O)N[C@H]2CCC[C@@H](n3cnnc3C3CC3)C2)cc1F [Compound 2Oaf, 4-butoxy-N-[(1S,3R)-3-(3-cyclopropyl-4H-1,2,4-triazol-4-yl)cyclohexyl]-3-fluorobenzenesulfonamide]",1.7
4,"2-ethyl-N-[(1S,3R)-3-(4H-1,2,4-triazol-4-yl)cyclohexyl]biphenyl-4-sulfonamide [Compound 2Af]",15
5,Cc1nncn1[C@H]1C[C@@H](NS(=O)(=O)c2cc(-c3ccn[nH]3)cc(C(F)(F)F)c2)CC(F)(F)C1 [Compound 9Ae],18
